Results from patent publication US20120029187A1, “HALOALKYLSULFONANILIDE DERIVATIVE” (Nissan Chemical Industries, Ltd., priority 2009, published 2012).

Tests used:
Assay type in all cases: in vivo
[1] = system: ducksalad; experiment: Test Example 1: herbicidal effects in preemergence treatment under submerged conditions; conditions: dose 2.52 g/a
In short: (§1)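 Weed seeds and 2.5-leaf rice seedlings shared each flooded cup of alluvial soil. Dosing, expressed as g per are, was by pouring water-diluted emulsifiable concentrate onto the surface on sowing day. Mortality was graded 0 to 5 after three weeks' growth.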

[2] = system: bulrush; experiment: as above; conditions: dose 2.52 g/a
In short: as §1

[3] = system: barnyardgrass; experiment: as above; conditions: dose 2.52 g/a
In short: as §1

[4] = system: large crabgrass; experiment: Test Example 4: herbicidal effect in foliage treatment; conditions: dose 6.3 g/a, three weeks after application
In short: (§2)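 Visual herbicidal scores on a graded scale were recorded three weeks after foliar application. Compounds went on as diluted emulsifiable concentrates at predetermined g/a to plants grown 14 days in a 25 to 30° C greenhouse.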

[5] = system: redroot pigweed; experiment: as above; conditions: dose 6.3 g/a, three weeks after application
In short: as §2

[6] = system: common lambsquater; experiment: as above; conditions: dose 6.3 g/a, three weeks after application
In short: as §2

[7] = system: giant foxtail; experiment: as above; conditions: dose 6.3 g/a, three weeks after application
In short: as §2

[8] = system: wild oat; experiment: as above; conditions: dose 6.3 g/a, three weeks after application
In short: as §2

[9] = system: water foxtail; experiment: as above; conditions: dose 6.3 g/a, three weeks after application
In short: as §2

[10] = system: barnyardgrass; experiment: as above; conditions: dose 6.3 g/a, three weeks after application
In short: as §2

[11] = system: beadstraw; experiment: as above; conditions: dose 6.3 g/a, three weeks after application
In short: as §2

[12] = system: common ragweed; experiment: as above; conditions: dose 6.3 g/a, three weeks after application
In short: as §2

[13] = system: common chickweed; experiment: as above; conditions: dose 6.3 g/a, three weeks after application
In short: as §2

[14] = system: Italian ryegrass; experiment: as above; conditions: dose 6.3 g/a, three weeks after application
In short: as §2

[15] = system: ducksalad; experiment: Test Example 2: herbicidal effects during the vegetation period under submerged conditions; conditions: treatment during the vegetation period under submerged conditions; dose 2.52 g/a
In short: (§3)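 Barnyardgrass, bulrush and ducksalad were co-sown in alluvial soil flooded to 4 cm and grown in a greenhouse at 25 to 30° C. At the 1- or 2-leaf stage, water-diluted emulsifiable concentrates went onto the water surface at set doses (g/a). Herbicidal effect was scored three weeks later on a graded scale.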

[16] = system: bulrush; experiment: as above; conditions: treatment during the vegetation period under submerged conditions; dose 2.52 g/a
In short: as §3

[17] = system: barnyardgrass; experiment: as above; conditions: treatment during the vegetation period under submerged conditions; dose 2.52 g/a
In short: as §3

[18] = system: large crabgrass; experiment: Test Example 3: herbicidal effects in soil treatment; conditions: dose 6.3 g/a
In short: (§4)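 Seeds were sown in sterilized diluvial soil and covered with about 1.5 cm of soil. Compounds, formulated as emulsifiable concentrates and diluted with water, were sprayed evenly over the soil surface at set doses in g/a. Herbicidal effect was scored on a rating scale three weeks later.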

[19] = system: redroot pigweed; experiment: as above; conditions: dose 6.3 g/a
In short: as §4

[20] = system: common lambsquater; experiment: as above; conditions: dose 6.3 g/a
In short: as §4

[21] = system: giant foxtail; experiment: as above; conditions: dose 6.3 g/a
In short: as §4

[22] = system: wild oat; experiment: as above; conditions: dose 6.3 g/a
In short: as §4

[23] = system: water foxtail; experiment: as above; conditions: dose 6.3 g/a
In short: as §4

[24] = system: barnyardgrass; experiment: as above; conditions: dose 6.3 g/a
In short: as §4

[25] = system: common ragweed; experiment: as above; conditions: dose 6.3 g/a
In short: as §4

[26] = system: common chickweed; experiment: as above; conditions: dose 6.3 g/a
In short: as §4

[27] = system: Italian ryegrass; experiment: as above; conditions: dose 6.3 g/a
In short: as §4

| Structure (SMILES) | C: ducksalad, herbicidal effect (evaluation scale 0-5) [1] | B: bulrush, herbicidal effect (evaluation scale 0-5) [2] | A: barnyardgrass, herbicidal effect (evaluation scale 0-5) [3] | D: large crabgrass, herbicidal effect [4] | K: redroot pigweed, herbicidal effect [5] | L: common lambsquater, herbicidal effect [6] | E: giant foxtail, herbicidal effect [7] | F: wild oat, herbicidal effect [8] | G: water foxtail, herbicidal effect [9] | A: barnyardgrass, herbicidal effect [10] | O: beadstraw, herbicidal effect [11] | J: common ragweed, herbicidal effect [12] | N: common chickweed, herbicidal effect [13] | H: Italian ryegrass, herbicidal effect [14] | C: ducksalad, herbicidal effect (evaluation scale 0-5) [15] | B: bulrush, herbicidal effect (evaluation scale 0-5) [16] | A: barnyardgrass, herbicidal effect (evaluation scale 0-5) [17] | D: large crabgrass, herbicidal effect (evaluation scale 0-5) [18] | K: redroot pigweed, herbicidal effect (evaluation scale 0-5) [19] | L: common lambsquater, herbicidal effect (evaluation scale 0-5) [20] | also measured |
| --- | --- | --- | --- | --- | --- | --- | --- | --- | --- | --- | --- | --- | --- | --- | --- | --- | --- | --- | --- | --- | --- |
| CC1(C)CC(=O)N(Cc2ccccc2NS(=O)(=O)C(F)(F)F)CO1 [II-17, 6,6-dimethyl-3-(2-trifluoromethanesulfonylaminobenzyl)-1,3-oxazinan-4-one] | 5 (mortality of 90% or above (nearly complete death)) | 5 (mortality of 90% or above (nearly complete death)) | 5 (mortality of 90% or above (nearly complete death)) | 5 (mortality of 90% or above (nearly complete death)) | 1 (mortality of at least 5% and less than 20%) | 4 (mortality of at least 70% and less than 90%) | 5 (mortality of 90% or above (nearly complete death)) | 0 (mortality of less than 5% (almost ineffective)) | 5 (mortality of 90% or above (nearly complete death)) | 5 (mortality of 90% or above (nearly complete death)) | 5 (mortality of 90% or above (nearly complete death)) | 5 (mortality of 90% or above (nearly complete death)) | 4 (mortality of at least 70% and less than 90%) | 4 (mortality of at least 70% and less than 90%) | 5 (mortality of 90% or above (nearly complete death)) | 5 (mortality of 90% or above (nearly complete death)) | 5 (mortality of 90% or above (nearly complete death)) | 5 (mortality of 90% or above (nearly complete death)) | 1 (mortality of at least 5% and less than 20%) | 2 (mortality of at least 20% and less than 40%) | E: giant foxtail, herbicidal effect (evaluation scale 0-5) [21]: 5 (mortality of 90% or above (nearly complete death)); F: wild oat, herbicidal effect (evaluation scale 0-5) [22]: 0 (mortality of less than 5% (almost ineffective)); G: water foxtail, herbicidal effect (evaluation scale 0-5) [23]: 5 (mortality of 90% or above (nearly complete death)); A: barnyardgrass, herbicidal effect (evaluation scale 0-5) [24]: 5 (mortality of 90% or above (nearly complete death)); J: common ragweed, herbicidal effect (evaluation scale 0-5) [25]: 5 (mortality of 90% or above (nearly complete death)); N: common chickweed, herbicidal effect (evaluation scale 0-5) [26]: 4 (mortality of at least 70% and less than 90%); H: Italian ryegrass, herbicidal effect (evaluation scale 0-5) [27]: 4 (mortality of at least 70% and less than 90%) |
| CC1(C)CC(=O)N(Cc2ccccc2N(C(=O)C2CC2)S(=O)(=O)C(F)(F)F)CO1 [II-20] | 5 (mortality of 90% or above (nearly complete death)) | 5 (mortality of 90% or above (nearly complete death)) | 5 (mortality of 90% or above (nearly complete death)) | 5 (mortality of 90% or above (nearly complete death)) | 0 (mortality of less than 5% (almost ineffective)) | 0 (mortality of less than 5% (almost ineffective)) | 5 (mortality of 90% or above (nearly complete death)) | 0 (mortality of less than 5% (almost ineffective)) | 5 (mortality of 90% or above (nearly complete death)) | 5 (mortality of 90% or above (nearly complete death)) | 4 (mortality of at least 70% and less than 90%) | 5 (mortality of 90% or above (nearly complete death)) | 3 (mortality of at least 40% and less than 70%) | 4 (mortality of at least 70% and less than 90%) | 5 (mortality of 90% or above (nearly complete death)) | 5 (mortality of 90% or above (nearly complete death)) | 5 (mortality of 90% or above (nearly complete death)) | 4 (mortality of at least 70% and less than 90%) | 0 (mortality of less than 5% (almost ineffective)) | 0 (mortality of less than 5% (almost ineffective)) | E: giant foxtail, herbicidal effect (evaluation scale 0-5) [21]: 4 (mortality of at least 70% and less than 90%); F: wild oat, herbicidal effect (evaluation scale 0-5) [22]: 0 (mortality of less than 5% (almost ineffective)); G: water foxtail, herbicidal effect (evaluation scale 0-5) [23]: 5 (mortality of 90% or above (nearly complete death)); A: barnyardgrass, herbicidal effect (evaluation scale 0-5) [24]: 5 (mortality of 90% or above (nearly complete death)); J: common ragweed, herbicidal effect (evaluation scale 0-5) [25]: 4 (mortality of at least 70% and less than 90%); N: common chickweed, herbicidal effect (evaluation scale 0-5) [26]: 4 (mortality of at least 70% and less than 90%); H: Italian ryegrass, herbicidal effect (evaluation scale 0-5) [27]: 5 (mortality of 90% or above (nearly complete death)) |
